Data from patent US10857123B2, “NLRP3 inhibitors for the treatment of inflammatory skin disorders” (GALDERMA RESEARCH & DEVELOPMENT, priority 2016, dated 2020).

Legend:
[1] = system: Mouse Psoriasiform Model; test: Mouse psoriasiform model (imiquimod / Aldara-induced skin inflammation); type: in vivo, Balb/c mice; settings: topical, 3% in acetone, once a day 2 h before Aldara, FIG. 4
Experimental: Example 2: Protocol for Testing an NLRP3 Antagonist (N-((1,2,3,5,6,7-hexahydro-s-indacen-4-yl)carbamoyl)-4-(2-hydroxypropan-2-yl)furan-2-sulfonamide, Compound 3, Also Known as MCC950) on a Mouse Psoriasiform Model
The treatment protocol consists of a daily topical application of Aldara® (3.18 mg of imiquimod) for 7 days to the shaved skin of Balb/c mice. The NLRP3 antagonist was dissolved in 3% acetone and was applied once a day 2 h before the treatment with Aldara®. The clinical score is an overall classification resulting from the sum of the erythema, edema and desquamation scores, on the basis of the overall evaluation by the physician of the Lattice system, known as LS PGA (J Am Acad Dermatol. 2004 October; 51(4):563-9).
Indeed, imiquimod induces inflamed scaly skin lesions resembling the psoriasis plaque. These lesions are associated with increased epidermal proliferation, abnormal differentiation, an epidermal accumulation of neutrophils in […], neoangiogenesis and infiltrates consisting of CD4+ T cells, of CD11c (+) dendritic cells and of plasmacytoid dendritic cells. Imiquimod induces an epidermal expression of IL-23, IL-17A and IL-17F, and also an increase in Th17 spleen cells. […]

[2] = system: Mouse Atopic Dermatitis Model; test: Mouse atopic dermatitis model (epicutaneous sensitization with Dermatophagoides pteronyssinus allergen); type: in vivo, Balb/c mice; settings: for Insensible water loss (IWL) decrease / Thickness of the epidermis (epidermal acanthosis) change / Inflammatory score reduction: day 51; for Insensible water loss (IWL) decrease: FIG. 1; for Thickness of the epidermis (epidermal acanthosis) change: FIG. 2; for Inflammatory score reduction: FIG. 3
Experimental: Example 1: Protocol for Testing an NLRP3 Antagonist (N-((1,2,3,5,6,7-hexahydro-s-indacen-4-yl)carbamoyl)-4-(2-hydroxypropan-2-yl)furan-2-sulfonamide, Compound 3, Also Known as MCC950) on a Mouse Atopic Dermatitis Model
Female Balb/c mice were treated with the allergen Dermatophagoides pteronyssinus (DERP) in 3 cycles of epicutaneous sensitization (per patch) on the abdominal skin with 2 patches applied twice a week, followed by 2 weeks of rest, for 7 weeks. Topical treatments with an NLRP3 antagonist (compound 3, 2% in an acetone carrier) or a corticosteroid (0.1% betamethasone valerate, used as a control) were carried out 3 times over the course of the third and final week of sensitization (on days 44, 47 and 50).
An inflammatory reaction was induced by epicutaneous sensitization with patches impregnated with 100 μg of allergen in a sterile saline solution (Dermatophagoides pteronyssinus or DERP) or with a carrier applied to the abdominal skin 24 hours after shaving and left for three periods of 1 week (with a change of patch in the middle of the week), with a gap of 2 weeks between applications.
For the systemic route, the NLRP3 antagonist was administered intravenously, 200 μl, 2.5 mg/ml once a day, for the final series of epicutaneous sensitization with the allergen (D44 to D50).
For the topical administration, the test antagonist (compound 3) was formulated at 2% in an acetone carrier, applied to the sensitized skin 2 hours before the DERP patches were put in place. The topical treatments with an NLRP3 antagonist or a corticosteroid (used as a control) were carried out 3 times over the course of the third and final week of sensitization (on days 44, 47 and 50). At the time the final patch was removed (day 51), the skin and blood samples were collected.
The IWL is measured using a Tewameter on an animal the day before day 51. The Tewameter® probe measures the gradient of density of the evaporation of water from the skin indirectly by means of two sensors (temperature and relative humidity) inside a hollow cylinder. A microprocessor analyzes the values and expresses the evaporation rate in g/h/m^2.
The thickness of the epidermis is measured by histological morphometric analyses on sections 6 μm thick, stained with hematoxylin eosin (HE), originating from skin samples fixed beforehand in […].
The inflammatory score is defined visually on the basis of predefined dryness, skin rash, baldness, excoriation and lichenification scales. The mean of the five scores given to one individual mouse on a given day indicates the clinical score given on the specific day.

[3] = systemic route (intravenous, 200 μl, 2.5 mg/ml once a day, D44 to D50)
[4] = topical route (2% in acetone carrier, days 44, 47 and 50)

CC(C)(O)c1coc(S(=O)(=O)NC(=O)Nc2c3c(cc4c2CCC4)CCC3)c1 [Compound 3, N-((1,2,3,5,6,7-hexahydro-s-indacen-4-yl)carbamoyl)-4-(2-hydroxypropan-2-yl)furan-2-sulfonamide]
Reduction of imiquimod-induced skin inflammation on the basis of the clinical score ([1]; day 4): −36%
Reduction of imiquimod-induced skin inflammation on the basis of the clinical score ([1]; day 5): −27%
Insensible water loss (IWL) decrease [2, 3]: −60%
Thickness of the epidermis (epidermal acanthosis) change [2, 3]: −38%
Inflammatory score reduction [2, 3]: −62%
Insensible water loss (IWL) decrease [2, 4]: −42%
Thickness of the epidermis (epidermal acanthosis) change [2, 4]: −24%
Inflammatory score reduction [2, 4]: −39%
Efficacy compared with corticosteroid treatment ([2]; versus 0.1% betamethasone valerate, the corticosteroid control): quite close to the treatment with corticosteroids
